Here are results for 29 molecules from patent US10065945B2, “Isoquinoline derivatives as MGAT2 inhibitors” (Merck Sharp & Dohme Corp., priority 2014, dated 2018).

In the test the target is MGAT2 Human (Homo sapiens (Human), UniProt Q3SYC2). Kind of test: MGAT2 Human IC50. Format: biochemical.
Chain of MGAT2 Human (Q3SYC2 whole entry): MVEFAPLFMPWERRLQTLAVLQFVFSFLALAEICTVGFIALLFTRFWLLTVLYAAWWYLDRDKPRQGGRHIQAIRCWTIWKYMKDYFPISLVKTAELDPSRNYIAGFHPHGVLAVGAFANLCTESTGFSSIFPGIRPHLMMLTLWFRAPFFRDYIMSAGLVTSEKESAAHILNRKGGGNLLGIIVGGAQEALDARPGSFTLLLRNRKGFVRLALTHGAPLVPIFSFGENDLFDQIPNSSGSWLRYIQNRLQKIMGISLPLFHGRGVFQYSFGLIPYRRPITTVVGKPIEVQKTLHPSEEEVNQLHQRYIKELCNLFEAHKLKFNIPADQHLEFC
For the molecule `C[C@H](c1cccc(Cl)c1)N1CCc2ccc(S(=O)(=O)Nc3cc(C(C)(C)C)on3)cc2C1` [Example 1, (R)—N-(5-(tert-butyl)isoxazol-3-yl)-2-(1-(3-chlorophenyl)ethyl)-1,2,3,4-tetrahydroisoquinoline-7-sulfonamide], it took 9 nM to reach half-maximal inhibition (IC50). In other words, the single-digit nanomolar range. As to `C[C@H](c1cc(F)cc(F)c1F)N1CCc2ccc(S(=O)(=O)Nc3cc(C(C)(C)C)on3)cc2C1` [Example 2, (R)—N-(5-(tert-butyl)isoxazol-3-yl)-2-(1-(2,3,5-trifluorophenyl)ethyl)-1,2,3,4-tetrahydroisoquinoline-7-sulfonamide], the IC50 – broadly, the midpoint of a concentration-inhibition curve – was found to be 6 nM. In the case of `C[C@H](c1ccccc1)N1CCc2ccc(S(=O)(=O)Nc3cc(C(C)(C)C)on3)cc2C1` [Example 3, (R)—N-(5-(tert-butyl)isoxazol-3-yl)-2-(1-phenylethyl)-1,2,3,4-tetrahydroisoquinoline-7-sulfonamide] it was 9 nM. In the case of `CCSc1ncc([C@@H](C)N2CCc3ccc(S(=O)(=O)Nc4cc(C(C)(C)C)on4)cc3C2)cn1` [Example 4, (R)—N-(5-(tert-butyl)isoxazol-3-yl)-2-(1-(2-(ethylthio)pyrimidin-5-yl)ethyl)-1,2,3,4-tetrahydroisoquinoline-7-sulfonamide] it was 11 nM.

In turn, `Cc1c(NS(=O)(=O)c2ccc3c(c2)CN([C@H](C)c2ccc(OCC(F)(F)F)nc2)CC3)noc1C(C)(C)C` [Example 5, (R)—N-(5-(tert-butyl)-4-methylisoxazol-3-yl)-2-(1-(6-(2,2,2-trifluoroethoxy)pyridin-3-yl)ethyl)-1,2,3,4-tetrahydroisoquinoline-7-sulfonamide] came in with an IC50 of 4.5 nM. In the case of `C[C@H](c1ccc(OCC(F)(F)F)nc1)N1CCc2ccc(S(=O)(=O)Nc3noc(-c4ccccc4)n3)cc2C1` [Example 6] it was 9.2 nM; in that of `CCc1noc(NS(=O)(=O)c2ccc3c(c2)CN([C@H](C)c2ccc(OCC(F)(F)F)nc2)CC3)n1` [Example 7], 8.1 nM. In the case of `CC(C)c1nc(NS(=O)(=O)c2ccc3c(c2)CN([C@H](C)c2ccc(OCC(F)(F)F)nc2)CC3)no1` [Example 8] it was 13 nM; in that of `C[C@H](c1ccc(OCC(F)(F)F)nc1)N1CCc2ccc(S(=O)(=O)Nc3cc(C(C)(C)C)on3)cc2C1` [Example 9, (R)—N-(5-(tert-butyl)isoxazol-3-yl)-2-(1-(6-(2,2,2-trifluoroethoxy)pyridin-3-yl)ethyl)-1,2,3,4-tetrahydroisoquinoline-7-sulfonamide], 11 nM; in that of `C[C@H](c1cnc(OCC(F)(F)F)nc1)N1CCc2ccc(S(=O)(=O)Nc3noc(C(C)(C)C)c3Br)cc2C1` [Example 10, (R)—N-(4-bromo-5-(tert-butyl)isoxazol-3-yl)-2-(1-(2-(2,2,2-trifluoroethoxy)pyrimidin-5-yl)ethyl)-1,2,3,4-tetrahydroisoquinoline-7-sulfonamide], 17 nM.

Take `C[C@H](c1cnc(OCC(F)(F)F)nc1)N1CCc2ccc(S(=O)(=O)Nc3noc(C(C)(C)C)c3-c3cccc(F)c3)cc2C1` [Example 11, (R)—N-(5-(tert-butyl)-4-(3-fluorophenyl)isoxazol-3-yl)-2-(1-(2-(2,2,2-trifluoroethoxy)pyrimidin-5-yl)ethyl)-1,2,3,4-tetrahydroisoquinoline-7-sulfonamide]: the IC50 stood at 20 nM. This IC50 and that of the molecule before are within 1.5-fold of each other. As to `C[C@H](c1cnc(OCC(F)(F)F)nc1)N1CCc2ccc(S(=O)(=O)Nc3cc(C(C)(C)C)on3)cc2C1` [Example 12, (R)—N-(5-(tert-butyl)isoxazol-3-yl)-2-(1-(2-(2,2,2-trifluoroethoxy)pyrimidin-5-yl)ethyl)-1,2,3,4-tetrahydroisoquinoline-7-sulfonamide], it took 14 nM to reach half-maximal inhibition (IC50).

On to `C[C@H](c1ccc(OCC(F)(F)F)nc1)N1CCc2ccc(S(=O)(=O)Nc3noc(C(C)(C)C)c3Cl)cc2C1` [Example 13, (R)—N-(5-(tert-butyl)-4-chloroisoxazol-3-yl)-2-(1-(6-(2,2,2-trifluoroethoxy)pyridin-3-yl)ethyl)-1,2,3,4-tetrahydroisoquinoline-7-sulfonamide], for which the IC50 was determined as 16 nM.

`Cc1c(NS(=O)(=O)c2ccc3c(c2)CN([C@H](C)c2cnc(OCC(F)(F)F)cn2)CC3)noc1C(C)(C)C` [Example 14, (R)—N-(5-(tert-butyl)-4-methylisoxazol-3-yl)-2-(1-(5-(2,2,2-trifluoroethoxy)pyrazin-2-yl)ethyl)-1,2,3,4-tetrahydroisoquinoline-7-sulfonamide] gave an IC50 of 3.1 nM.

Turning to `Cc1c(NS(=O)(=O)c2ccc3c(c2)CN(Cc2ccc(OCC(F)(F)F)nc2)CC3)noc1C(C)(C)C` [Example 15, N-(5-(tert-butyl)-4-methylisoxazol-3-yl)-2-((6-(2,2,2-trifluoroethoxy)pyridin-3-yl)methyl)-1,2,3,4-tetrahydroisoquinoline-7-sulfonamide], half-maximal inhibition (IC50) was put at 11 nM. Molecule `CC(C)(C)c1onc(NS(=O)(=O)c2ccc3c(c2)CN(Cc2ccc(OCC(F)(F)F)nc2)CC3)c1F` [Example 16, N-(5-(tert-butyl)-4-fluoroisoxazol-3-yl)-2-((6-(2,2,2-trifluoroethoxy)pyridin-3-yl)methyl)-1,2,3,4-tetrahydroisoquinoline-7-sulfonamide] yielded an IC50 of 16 nM. In the case of `Cc1onc(NS(=O)(=O)c2ccc3c(c2)CN([C@H](C)c2ccc(OCC(F)(F)F)nc2)CC3)c1-c1cnn(C)c1` [Example 17, (R)—N-(5-methyl-4-(1-methyl-1H-pyrazol-4-yl)isoxazol-3-yl)-2-(1-(6-(2,2,2-trifluoroethoxy)pyridin-3-yl)ethyl)-1,2,3,4-tetrahydroisoquinoline-7-sulfonamide] it was 24 nM; in that of `C[C@H](c1ccc(OCC(F)(F)F)nc1)N1CCc2ccc(S(=O)(=O)Nc3cc(C(C)(C)O)on3)cc2C1` [Example 18, (R)—N-(5-(2-hydroxypropan-2-yl)isoxazol-3-yl)-2-(1-(6-(2,2,2-trifluoroethoxy)pyridin-3-yl)ethyl)-1,2,3,4-tetrahydroisoquinoline-7-sulfonamide], 23 nM; in that of `C[C@H](c1ccc(OCC(F)(F)F)nc1)N1CCc2ccc(S(=O)(=O)Nc3cc(C(C)(C)F)on3)cc2C1` [Example 19, (R)—N-(5-(2-fluoropropan-2-yl)isoxazol-3-yl)-2-(1-(6-(2,2,2-trifluoroethoxy)pyridin-3-yl)ethyl)-1,2,3,4-tetrahydroisoquinoline-7-sulfonamide], 18 nM. For `Cc1c(NS(=O)(=O)c2ccc3c(c2)CN(Cc2cnc(SCC(F)(F)F)nc2)CC3)noc1C(C)(C)C` [Example 20, N-(5-(tert-butyl)-4-methylisoxazol-3-yl)-2-((2-((2,2,2-trifluoroethyl)thio)pyrimidin-5-yl)methyl)-1,2,3,4-tetrahydroisoquinoline-7-sulfonamide] the value was 5.8 nM; for `C/C=C/c1c(NS(=O)(=O)c2ccc3c(c2)CN(Cc2cnc(OCC(F)(F)F)s2)CC3)noc1C(C)(C)C` [Example 21, (E)-N-(5-(tert-butyl)-4-(prop-1-en-1-yl)isoxazol-3-yl)-2-((2-(2,2,2-trifluoroethoxy)thiazol-5-yl)methyl)-1,2,3,4-tetrahydroisoquinoline-7-sulfonamide], 3.9 nM. With `C[C@H](c1ccc(OCC(F)F)nc1)N1CCc2ccc(S(=O)(=O)Nc3cc(C(C)(C)C)on3)cc2C1` [Example 22], the IC50 was found to be 6.4 nM. For `C[C@H](c1ccc(OCC(F)F)nc1)N1CCc2ccc(S(=O)(=O)Nc3noc(C4CC4)n3)cc2C1` [Example 23, (R)-5-cyclopropyl-3-(2-(1-(6-(2,2-difluoroethoxy)pyridin-3-yl)ethyl)-1,2,3,4-tetrahydroisoquinoline-7-sulfonamido)-1,2,4-oxadiazol-2-ium 2,2,2-trifluoroacetate] the value was 8.2 nM. In the case of `C[C@H](c1cnc(OCC(F)F)cn1)N1CCc2ccc(S(=O)(=O)Nc3noc(C4CC4)n3)cc2C1` [Example 24, (R)-5-cyclopropyl-3-(2-(1-(5-(2,2-difluoroethoxy)pyrazin-2-yl)ethyl)-1,2,3,4-tetrahydroisoquinoline-7-sulfonamido)-1,2,4-oxadiazol-2-ium 2,2,2-trifluoroacetate] it was 19.7 nM. In the case of `Cc1c(NS(=O)(=O)c2ccc3c(c2)CN([C@H](C)c2cnc(OCC(F)F)cn2)CC3)noc1C(C)(C)C` [Example 25, 7-(N-(5-(tert-butyl)-4-methylisoxazol-3-yl)sulfamoyl)-2-((R)-1-(5-(2,2-difluoroethoxy)pyrazin-2-yl)ethyl)-1,2,3,4-tetrahydroisoquinolin-2-ium 2,2,2-trifluoroacetate] it was 4.6 nM; in that of `C[C@H](c1ccc(OCC2CC(F)(F)C2)nc1)N1CCc2ccc(S(=O)(=O)Nc3noc(C4CC4)n3)cc2C1` [Example 26, (R)-5-cyclopropyl-3-(2-(1-(6-((3,3-difluorocyclobutyl)methoxy)pyridin-3-yl)ethyl)-1,2,3,4-tetrahydroisoquinoline-7-sulfonamido)-1,2,4-oxadiazol-2-ium 2,2,2-trifluoroacetate], 20 nM; in that of `Cc1c(NS(=O)(=O)c2ccc3c(c2)CN(C(=O)c2ccc(OCC(F)(F)F)nc2)CC3)noc1C(C)(C)C` [Example 27, N-(5-(tert-butyl)-4-methylisoxazol-3-yl)-2-(6-(2,2,2-trifluoroethoxy)nicotinoyl)-1,2,3,4-tetrahydroisoquinoline-7-sulfonamide], 41 nM.

`Cc1c(NS(=O)(=O)c2ccc3c(c2)CN([C@H](C)c2ccc(OCC4CC(F)(F)C4)nc2)CC3)noc1C(C)(C)C` [Example 28, 7-(N-(5-(tert-butyl)-4-methylisoxazol-3-yl)sulfamoyl)-2-((R)-1-(6-((3,3-difluorocyclobutyl)methoxy)pyridin-3-yl)ethyl)-1,2,3,4-tetrahydroisoquinolin-2-ium 2,2,2-trifluoroacetate]: the IC50 worked out at 8.5 nM. Against the preceding molecule, the IC50 is about 4.8-fold lower.

Regarding `Cc1c(NS(=O)(=O)c2ccc3c(c2)CN([C@H](C)c2ccc(OCC(F)(F)F)cc2)CC3)noc1C(C)(C)C` [Example 29, 7-(N-(5-(tert-butyl)-4-methylisoxazol-3-yl)sulfamoyl)-2-((R)-1-(4-(2,2,2-trifluoroethoxy)phenyl)ethyl)-1,2,3,4-tetrahydroisoquinolin-2-ium 2,2,2-trifluoroacetate], it took 9.5 nM to reach half-maximal inhibition (IC50).
